Key:
Experiment in all cases: relative viability (nuclei count vs DMSO), 5 days (fraction); higher = more cells survive
[1] = compound: C#Cc1cccc(Nc2ncnc3cc(OC)c(OCCCCCCC(=O)NO)cc23)c1 [CUDC-101] + O=C(c1cc(Cc2n[nH]c(=O)c3ccccc23)ccc1F)N1CCN(C(=O)C2CC2)CC1 [Olaparib] (partner 8 µM)
Summary of the method: (§1)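 Lung cancer cell lines were pin-tool dosed in 1536-well plates on the day after seeding, with either a lone drug or a fixed anchor-drug dose plus five library-drug doses (not always all listed) in √10 steps. Nuclei were counted on 4× images after 5 days. Relative viability is the ratio of treated-well to vehicle-well nuclei counts, with each value a median of duplicate plates.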

[2] = compound: C1=CC=C2C(=C1)N=C(S2)C(C#N)C3=NC(=NC=C3)NCCC4=CN=CC=C4 + O=C(CCCCCCC(=O)Nc1ccccc1)NO [Vorinostat] (partner 1 µM)
Summary of the method: as §1

[3] = compound: COc1cc(N2CCC(N3CCN(C)CC3)CC2)ccc1Nc1ncc(Cl)c(Nc2ccccc2S(=O)(=O)C(C)C)n1 [NVP-TAE684] + Cc1nc(Nc2ncc(C(=O)Nc3c(C)cccc3Cl)s2)cc(N2CCN(CCO)CC2)n1 [Dasatinib] (partner 0.075 µM)
Summary of the method: as §1

[4] = compound: C#Cc1cccc(Nc2ncnc3cc(OC)c(OCCCCCCC(=O)NO)cc23)c1 [CUDC-101] + CS(=O)(=O)N1CCN(Cc2cc3nc(-c4cccc5[nH]ncc45)nc(N4CCOCC4)c3s2)CC1 [Pictilisib] (partner 1 µM)
Summary of the method: as §1

Row | Cell Line | relative viability ([1]; first compound 0.01 µM) | relative viability ([1]; first compound 0.03162 µM) | relative viability ([1]; first compound 0.1 µM) | relative viability ([1]; first compound 0.3162 µM) | relative viability ([1]; first compound 1 µM) | relative viability ([2]; first compound 0.01581 µM) | relative viability ([2]; first compound 0.1581 µM) | relative viability ([2]; first compound 0.5 µM) | relative viability ([3]; first compound 0.2 µM) | relative viability ([3]; first compound 0.6325 µM) | relative viability ([3]; first compound 2 µM) | relative viability ([4]; first compound 0.01 µM) | relative viability ([4]; first compound 0.03162 µM) | relative viability ([4]; first compound 0.1 µM) | relative viability ([4]; first compound 0.3162 µM) | relative viability ([4]; first compound 1 µM) | relative viability ([2]; first compound 0.005 µM) | relative viability ([2]; first compound 0.05 µM)
1 | NCI-H1648 | 1.19 | 0.762 | 0.665 | 0.748 | 0.294 | 0.448 | 0.622 | 0.417 | – | – | – | – | – | – | – | – | – | –
2 | NCI-H1623 | – | – | – | – | – | – | – | – | 0.514 | 0.502 | 0.439 | – | – | – | – | – | – | –
3 | LU99A | 0.259 | 0.24 | 0.233 | 0.192 | 0.105 | 0.529 | 0.622 | 0.477 | 0.475 | 0.392 | 0.179 | 0.323 | 0.299 | 0.33 | 0.253 | 0.148 | 0.417 | –
4 | PC-3 [JPC-3] | 1.09 | 0.959 | 0.821 | 0.515 | 0.479 | – | 0.991 | 0.737 | 0.942 | 0.979 | 0.649 | 0.756 | 0.632 | 0.277 | 0.348 | 0.245 | 0.864 | 0.843
5 | A549 | 0.415 | 0.24 | 0.355 | 0.417 | 0.286 | – | – | – | – | – | – | 0.578 | 0.489 | 0.5 | 0.453 | 0.288 | – | –
6 | HCC-44 | 0.964 | 1.01 | 0.893 | 0.972 | 1.07 | 1.14 | 1.15 | 1.02 | – | – | – | 0.593 | 0.63 | 0.531 | 0.69 | 0.366 | 1.19 | 1.09
7 | H3255 | 0.653 | 0.547 | 0.512 | 0.442 | 0.264 | 0.729 | 0.988 | 0.84 | 0.318 | 0.274 | 0.23 | 0.618 | 0.382 | 0.143 | 0.181 | 0.0818 | 0.792 | 0.745
8 | LXF-289 | 1.01 | 1.14 | 1.06 | 1.08 | 0.599 | 0.862 | 1 | 0.729 | 0.191 | 0.141 | 0.111 | 0.758 | 0.806 | 0.806 | 0.728 | 0.51 | 0.688 | 0.811
9 | PC-14 | 0.273 | 0.317 | 0.295 | 0.165 | 0.0702 | 0.769 | 0.753 | 0.576 | 0.242 | 0.11 | 0.0369 | 0.936 | 0.562 | 0.215 | 0.173 | 0.0519 | 0.642 | 0.675
10 | NCI-H661 | 0.795 | 0.69 | 0.632 | 0.611 | 0.437 | 0.85 | 0.831 | 0.862 | 1.09 | 0.677 | 0.622 | 0.477 | 0.422 | 0.476 | 0.487 | 0.358 | 0.81 | 0.73
11 | EKVX | 1.06 | 0.737 | 0.71 | 0.961 | 0.624 | 0.731 | 0.821 | 0.741 | 0.367 | 0.469 | 0.202 | 0.452 | 0.403 | 0.412 | 0.355 | 0.215 | 0.506 | 0.677
12 | Calu-6 | 0.545 | 0.503 | 0.522 | 0.484 | 0.332 | – | – | – | – | – | – | 0.944 | 0.869 | 0.929 | 0.764 | 0.522 | – | –
13 | NCI-H1703 | – | 0.389 | 0.489 | 0.662 | 0.428 | – | – | – | – | – | – | 0.228 | 0.252 | 0.244 | 0.293 | 0.299 | – | –
14 | NCI-H322M | 0.789 | 0.674 | 0.771 | 0.692 | 0.594 | 0.842 | 0.9 | 0.935 | 0.241 | 0.223 | 0.246 | 0.522 | 0.546 | 0.439 | 0.417 | 0.353 | 0.771 | 0.789
15 | SK-MES-1 | 0.697 | 0.775 | 0.727 | 0.658 | 0.512 | 1.06 | 1.32 | 0.935 | 0.317 | 0.159 | 0.242 | 0.356 | 0.34 | 0.317 | 0.256 | 0.184 | 1.01 | 0.938
16 | NCI-H1299 | 0.964 | 0.953 | 1 | 0.98 | 0.883 | – | – | – | – | – | – | 0.978 | 0.839 | 0.766 | 0.653 | 0.412 | – | –
17 | NCI-H1355 | 0.756 | 0.711 | 0.726 | 0.693 | 0.585 | 0.625 | 0.67 | 0.564 | 0.673 | 0.534 | 0.372 | 0.485 | 0.44 | 0.491 | 0.38 | 0.277 | 0.596 | 0.649
18 | ChaGo-K-1 | 0.41 | 0.444 | 0.42 | 0.377 | 0.293 | 0.809 | 0.863 | 0.724 | 0.715 | 0.558 | 0.413 | 1.03 | 1.04 | 0.784 | 0.746 | 0.568 | 0.584 | 0.702
19 | SW 900 | 0.887 | 0.811 | 0.841 | 0.686 | 0.628 | 0.42 | 0.693 | 0.456 | 0.739 | 0.414 | 0.397 | – | – | – | – | – | 0.495 | 0.67
20 | NCI-H522 | 0.674 | 0.624 | 0.7 | 0.693 | 0.529 | 0.774 | 0.712 | 0.864 | 1.09 | 0.983 | 0.737 | – | – | – | – | – | 0.824 | 0.875
21 | IA-LM | 0.768 | 0.871 | 0.74 | 0.86 | 0.46 | 1.09 | 1.11 | 0.613 | – | – | – | 0.311 | 0.293 | 0.322 | 0.233 | 0.106 | 0.742 | 1.02
22 | NCI-H1792 | 0.495 | 0.379 | 0.381 | 0.407 | 0.278 | – | – | – | 0.623 | 0.76 | 0.25 | 0.361 | 0.226 | 0.28 | 0.316 | 0.155 | – | –
